What was measured:
Assay type in all cases: functional
HCT-15 = experiment: Growth inhibition of human HCT15 cells at 10^-5 M incubated for 48 hrs by sulforhodamine B assay; conditions: HCT-15, 48 h, read-out: GI
Malme-3M = experiment: Growth inhibition of human MALME-3M cells at 10^-5 M incubated for 48 hrs by sulforhodamine B assay; conditions: read-out: GI
PC-3 = experiment: Growth inhibition of human PC3 cells at 10^-5 M incubated for 48 hrs by sulforhodamine B assay; conditions: PC-3, 48 h, read-out: GI
HL-60(TB) = experiment: Growth inhibition of human HL-60(TB) cells at 10^-5 M incubated for 48 hrs by sulforhodamine B assay; conditions: HL-60, 48 h, read-out: GI
NCI-H23 = experiment: Growth inhibition of human NCI-H23 cells at 10^-5 M incubated for 48 hrs by sulforhodamine B assay; conditions: NCI-H23, 48 h, read-out: GI
T47D = experiment: Growth inhibition of human T47D cells at 10^-5 M incubated for 48 hrs by sulforhodamine B assay; conditions: read-out: GI
Hs-578T = experiment: Growth inhibition of human Hs 578T cells at 10^-5 M incubated for 48 hrs by sulforhodamine B assay; conditions: read-out: GI
SK-MEL-5 = experiment: Growth inhibition of human SK-MEL-5 cells at 10^-5 M incubated for 48 hrs by sulforhodamine B assay; conditions: SK-MEL-5, 48 h, read-out: GI
OVCAR-8 = experiment: Growth inhibition of human OVCAR8 cells at 10^-5 M incubated for 48 hrs by sulforhodamine B assay; conditions: OVCAR-8, 48 h, read-out: GI
NCI-H460 = experiment: Growth inhibition of human NCI-H460 cells at 10^-5 M incubated for 48 hrs by sulforhodamine B assay; conditions: NCI-H460, 48 h, read-out: GI
IGROV-1 = experiment: Growth inhibition of human IGROV1 cells at 10^-5 M incubated for 48 hrs by sulforhodamine B assay; conditions: IGROV-1, 48 h, read-out: GI
786-0 = experiment: Growth inhibition of human 786-0 cells at 10^-5 M incubated for 48 hrs by sulforhodamine B assay; conditions: 786-0, 48 h, read-out: GI
SR = experiment: Growth inhibition of human SR cells at 10^-5 M incubated for 48 hrs by sulforhodamine B assay; conditions: read-out: GI
SF-539 = experiment: Growth inhibition of human SF539 cells at 10^-5 M incubated for 48 hrs by sulforhodamine B assay; conditions: SF-539, 48 h, read-out: GI
K562 = experiment: Growth inhibition of human K562 cells at 10^-5 M incubated for 48 hrs by sulforhodamine B assay; conditions: K562, 48 h, read-out: GI
COLO 205 = experiment: Growth inhibition of human COLO205 cells at 10^-5 M incubated for 48 hrs by sulforhodamine B assay; conditions: COLO 205, 48 h, read-out: GI
A498 = experiment: Growth inhibition of human A498 cells at 10^-5 M incubated for 48 hrs by sulforhodamine B assay; conditions: A498, 48 h, read-out: GI
TK-10 = experiment: Growth inhibition of human TK10 cells at 10^-5 M incubated for 48 hrs by sulforhodamine B assay; conditions: TK-10, 48 h, read-out: GI
M14 = experiment: Growth inhibition of human M14 cells at 10^-5 M incubated for 48 hrs by sulforhodamine B assay; conditions: M14, 48 h, read-out: GI
SW-620 = experiment: Growth inhibition of human SW620 cells at 10^-5 M incubated for 48 hrs by sulforhodamine B assay; conditions: SW-620, 48 h, read-out: GI
CAKI-1 = experiment: Growth inhibition of human Caki1 cells at 10^-5 M incubated for 48 hrs by sulforhodamine B assay; conditions: CAKI-1, 48 h, read-out: GI
SK-MEL-2 = experiment: Growth inhibition of human SK-MEL-2 cells at 10^-5 M incubated for 48 hrs by sulforhodamine B assay; conditions: SK-MEL-2, 48 h, read-out: GI
SF-268 = experiment: Growth inhibition of human SF268 cells at 10^-5 M incubated for 48 hrs by sulforhodamine B assay; conditions: SF-268, 48 h, read-out: GI
UACC-62 = experiment: Growth inhibition of human UACC62 cells at 10^-5 M incubated for 48 hrs by sulforhodamine B assay; conditions: UACC-62, 48 h, read-out: GI
NCI-H322M = experiment: Growth inhibition of human NCI-H322M cells at 10^-5 M incubated for 48 hrs by sulforhodamine B assay; conditions: read-out: GI
MDA-MB-468 = experiment: Growth inhibition of human MDA-MB-468 cells at 10^-5 M incubated for 48 hrs by sulforhodamine B assay; conditions: MDA-MB-468, 48 h, read-out: GI
MOLT-4 = experiment: Growth inhibition of human MOLT4 cells at 10^-5 M incubated for 48 hrs by sulforhodamine B assay; conditions: MOLT-4, 48 h, read-out: GI
NCI-H226 = experiment: Growth inhibition of human NCI-H226 cells at 10^-5 M incubated for 48 hrs by sulforhodamine B assay; conditions: NCI-H226, 48 h, read-out: GI
BT-549 = experiment: Growth inhibition of human BT549 cells at 10^-5 M incubated for 48 hrs by sulforhodamine B assay; conditions: BT-549, 48 h, read-out: GI
HOP-62 = experiment: Growth inhibition of human HOP62 cells at 10^-5 M incubated for 48 hrs by sulforhodamine B assay; conditions: HOP-62, 48 h, read-out: GI
ACHN = experiment: Growth inhibition of human ACHN cells at 10^-5 M incubated for 48 hrs by sulforhodamine B assay; conditions: read-out: GI
UO-31 = experiment: Growth inhibition of human UO31 cells at 10^-5 M incubated for 48 hrs by sulforhodamine B assay; conditions: UO-31, 48 h, read-out: GI
SNB-19 = experiment: Growth inhibition of human SNB19 cells at 10^-5 M incubated for 48 hrs by sulforhodamine B assay; conditions: SNB-19, 48 h, read-out: GI
SK-MEL-28 = experiment: Growth inhibition of human SK-MEL-28 cells at 10^-5 M incubated for 48 hrs by sulforhodamine B assay; conditions: SK-MEL-28, 48 h, read-out: GI
RXF 393 = experiment: Growth inhibition of human RXF393 cells at 10^-5 M incubated for 48 hrs by sulforhodamine B assay; conditions: RXF 393, 48 h, read-out: GI
SK-OV-3 = experiment: Growth inhibition of human SKOV3 cells at 10^-5 M incubated for 48 hrs by sulforhodamine B assay; conditions: SK-OV-3, 48 h, read-out: GI
MDA-MB-231 = experiment: Growth inhibition of human MDA-MB-231 cells at 10^-5 M incubated for 48 hrs by sulforhodamine B assay; conditions: MDA-MB-231, 48 h, read-out: GI
SF-295 = experiment: Growth inhibition of human SF295 cells at 10^-5 M incubated for 48 hrs by sulforhodamine B assay; conditions: SF-295, 48 h, read-out: GI

| Structure (SMILES) | inhibition of growth at 10 µM (HCT-15) | inhibition of growth at 10 µM (Malme-3M) | inhibition of growth at 10 µM (PC-3) | inhibition of growth at 10 µM (HL-60(TB)) | inhibition of growth at 10 µM (NCI-H23) | inhibition of growth at 10 µM (T47D) | inhibition of growth at 10 µM (Hs-578T) | inhibition of growth at 10 µM (SK-MEL-5) | inhibition of growth at 10 µM (OVCAR-8) | inhibition of growth at 10 µM (NCI-H460) | inhibition of growth at 10 µM (IGROV-1) | inhibition of growth at 10 µM (786-0) | inhibition of growth at 10 µM (SR) | inhibition of growth at 10 µM (SF-539) | inhibition of growth at 10 µM (K562) | inhibition of growth at 10 µM (COLO 205) | inhibition of growth at 10 µM (A498) | inhibition of growth at 10 µM (TK-10) | inhibition of growth at 10 µM (M14) | inhibition of growth at 10 µM (SW-620) | other results |
| --- | --- | --- | --- | --- | --- | --- | --- | --- | --- | --- | --- | --- | --- | --- | --- | --- | --- | --- | --- | --- | --- |
| O=[N+]([O-])c1cccc(C2c3sc4ccc(Cl)cc4c3N=C3NN=C(c4cccc(F)c4)N32)c1 (centres undefined) | 0.97% | -3.66% | 7.25% | 2.97% | 10.1% | 18.1% | 1.64% | 4.01% | -1.43% | 13.4% | 21.3% | -1.01% | 1.04% | 4.75% | 6.99% | -6.34% | 0.64% | -12.9% | -2.52% | -3.74% | inhibition of growth at 10 µM (CAKI-1): 21.9%; inhibition of growth at 10 µM (SK-MEL-2): -11.2%; inhibition of growth at 10 µM (SF-268): 2.25%; inhibition of growth at 10 µM (UACC-62): 4.06%; inhibition of growth at 10 µM (NCI-H322M): 2.83%; inhibition of growth at 10 µM (MDA-MB-468): -20.8%; inhibition of growth at 10 µM (MOLT-4): 13%; inhibition of growth at 10 µM (NCI-H226): 14%; inhibition of growth at 10 µM (BT-549): -8.29%; inhibition of growth at 10 µM (HOP-62): 14.2%; inhibition of growth at 10 µM (ACHN): 11.4%; inhibition of growth at 10 µM (UO-31): 41.4%; inhibition of growth at 10 µM (SNB-19): -0.64%; inhibition of growth at 10 µM (SK-MEL-28): -15.4%; inhibition of growth at 10 µM (RXF 393): -16.7%; inhibition of growth at 10 µM (SK-OV-3): 6.58%; inhibition of growth at 10 µM (MDA-MB-231): 13.4%; inhibition of growth at 10 µM (SF-295): 2.31% |
| O=C1Nc2c(sc3ccc(Cl)cc23)C(c2cccc([N+](=O)[O-])c2)N1 (centres undefined) | -4.66% | 16.6% | 10.8% | 1.94% | 9.8% | 16.3% | 3.78% | 2.85% | 4.06% | 3.38% | 15.6% | 4.42% | 20.8% | 8.46% | 12.9% | -1.33% | 15.5% | -4.8% | 2.62% | -3.52% | inhibition of growth at 10 µM (CAKI-1): 20.3%; inhibition of growth at 10 µM (SK-MEL-2): 2.08%; inhibition of growth at 10 µM (SF-268): 6.35%; inhibition of growth at 10 µM (UACC-62): 8.84%; inhibition of growth at 10 µM (NCI-H322M): 10.4%; inhibition of growth at 10 µM (MDA-MB-468): 8.51%; inhibition of growth at 10 µM (MOLT-4): 11%; inhibition of growth at 10 µM (NCI-H226): 17.5%; inhibition of growth at 10 µM (BT-549): 7.02%; inhibition of growth at 10 µM (HOP-62): 8.74%; inhibition of growth at 10 µM (ACHN): 9.21%; inhibition of growth at 10 µM (UO-31): 35.2%; inhibition of growth at 10 µM (SNB-19): 5.92%; inhibition of growth at 10 µM (SK-MEL-28): -5.57%; inhibition of growth at 10 µM (RXF 393): -8.11%; inhibition of growth at 10 µM (SK-OV-3): 3.88%; inhibition of growth at 10 µM (MDA-MB-231): 12.5%; inhibition of growth at 10 µM (SF-295): 1.41% |
| O=C1/C(=C\c2cccc(Br)c2)Sc2ccc(Cl)cc21 | -10.9% | -1.08% | -1.54% | -5.53% | 8.26% | 1.47% | -8.14% | 1.63% | -3.52% | -7.98% | -2.64% | -3.61% | -4.42% | -3.89% | -7.99% | -6.12% | 13.5% | -29.1% | -1.09% | -1.25% | inhibition of growth at 10 µM (CAKI-1): 10.1%; inhibition of growth at 10 µM (SK-MEL-2): -5.68%; inhibition of growth at 10 µM (SF-268): 2.33%; inhibition of growth at 10 µM (UACC-62): 2.69%; inhibition of growth at 10 µM (NCI-H322M): 9.44%; inhibition of growth at 10 µM (MDA-MB-468): -18.6%; inhibition of growth at 10 µM (MOLT-4): -5.33%; inhibition of growth at 10 µM (NCI-H226): 10.4%; inhibition of growth at 10 µM (BT-549): -26.2%; inhibition of growth at 10 µM (HOP-62): 3.1%; inhibition of growth at 10 µM (ACHN): 3.66%; inhibition of growth at 10 µM (UO-31): -29.1%; inhibition of growth at 10 µM (SNB-19): -6.33%; inhibition of growth at 10 µM (SK-MEL-28): -20.5%; inhibition of growth at 10 µM (RXF 393): -5.49%; inhibition of growth at 10 µM (SK-OV-3): 5.77%; inhibition of growth at 10 µM (MDA-MB-231): -3.31%; inhibition of growth at 10 µM (SF-295): -0.53% |
